The test system of the test is T1, Pleurotus ostreatus NRC 620 laccase.
T1 construct: gene pox2
The note with it: pH 4.5; ABTS 0.025-3 mM; crude culture supernatant.

`CCn1c(=NN=c2sc3cc(S(=O)(=O)O)ccc3n2CC)sc2cc(S(=O)(=O)O)ccc21` [ABTS, 2, 2´-azino-bis (3-ethylbenzothiazoline-6-sulphonic acid)]: the Km – broadly, the concentration of substrate that gives half-maximal velocity – was determined as 1990 µM.

The record behind these values is article PMC12181291, “Production and biochemical characterization of Pleurotus ostreatus NRC 620 laccase and evaluation of its efficacy in apple juice clarification” (Scientific Reports, 2025).
